Among the data in US11225642B2, “Method for producing renal progenitor cells” (KYOTO UNIVERSITY, priority 2013, dated 2022) are SIX2-tdTomato-positive cell rate values, retold here.

The test system of test [1] is OSR1-GFP & SIX2-tdTomato reporter human iPS cell line. Kind of test: SIX2-positive cell induction method 2, SIX2-tdTomato-positive cell rate by flow cytometer. The format is cell-based. Particulars: stage 3 medium with 5 ng/ml TGFβ1 and 0.5 μM Dorsomorphin, 12 to 22 days. As to the method:
The OSR1-GFP & SIX2-tdTomato reporter human iPS cell line obtained by the method in Example 1 was cultured in the manner described in stage 1 of induction method 1 to become confluent on 10-cm dishes using SNL cells as feeder cells. A CTK solution was added to dissociate the cells. After removal of the feeder cells, the dissociated cells were suspended in a DMEM/F12 medium containing 1 μM TTNPB (Sigma, T3757), 1 μM CHIR99021, 1% GlutaMAX (100×), 2% FBS, and 0.5% PenStrep. Then, the cell suspensions were transferred to a low cell binding plate (LOW CELL BIND 6 WELL DISH) such that each well contained one-third to one-sixth of the cell suspension obtained from the 10-cm dish, followed by suspension culture at 37° C. in a 5% CO2 atmosphere for 2 days.
The cell mass obtained at stage 1 was transferred to dishes coated with Matrigel or dishes coated with Synthemax (prepared in the manner described in stage 2 of induction method 1). The medium was exchanged with a DMEM/F12 medium containing 1 μM TTNPB, 0.1% 2-mercaptoethanol (1000×), 1% GlutaMAX (100×), 10% KnockOut SR, 0.1 mM MEM NEAA, and 0.5% PenStrep, followed by adhesion culture at 37° C. in a 5% CO2 atmosphere for 3 to 9 days. In this case, the medium was exchanged every 3 days with a medium having the same conditions.
The medium was removed from the cells obtained at stage 2. […]

Test [2] concerns OSR1-positive cells sorted from OSR1-GFP & SIX2-tdTomato reporter human iPS cell line. Briefly: SIX2-positive cell induction method 3, SIX2-tdTomato-positive cell rate by flow cytometer. The format is cell-based. Particulars: stage 3 medium with 5 ng/ml TGFβ1 and 0.5 μM Dorsomorphin. How it is done: The OSR1-GFP & SIX2-tdTomato reporter human iPS cell line obtained by the method in Example 1 was cultured in the manner described in stage 1 of induction method 1 to become confluent in 10-cm dishes using SNL cells as feeder cells. A CTK solution was added to dissociate the cells. After removal of the feeder cells, Accutase™ (Innovative Cell Technologies, AT-104) was added to disperse iPS cells to result in single cells. Then, the obtained cells were suspended in a DMEM/F12 medium containing 10 μM Y-27632 (Wako, 253-00513), 1 μM CHIR99021, 1 μM TTNPB, 1% GlutaMAX (100×), 2% FBS, and 0.5% PenStrep. The obtained cell suspensions (1×10^5 cells/well (for a 96-well dish)) were transferred to a dish coated with 0.1% gelatin (Gelatin from porcine skin, Type A (Sigma, G1890)), followed by adhesion culture at 37° C. in a 5% CO2 atmosphere for 2 days.
The cells obtained at stage 1 were washed with PBS. The medium was exchanged with a DMEM/F12 medium containing 1 μM TTNPB, 0.1% 2-mercaptoethanol (1000×), 1% GlutaMAX (100×), 10% KnockOut SR, 0.1 mM MEM NEAA, and 0.5% PenStrep, followed by adhesion culture at 37° C. in a 5% CO2 atmosphere for 3 to 9 days. In this case, the medium was exchanged every 3 days with a medium having the same conditions.
Accutase™ was added to cells obtained at stage 2 to dissociate the cells. […]

Regarding `c1cc(-c2cnn3cc(-c4ccc(OCCN5CCCCC5)cc4)cnc23)ccn1` [Dorsomorphin, 6-[4-(2-piperidin-1-yl-ethoxy)phenyl]-3-pyridin-4-yl-pyrazolo[1,5-a]pyrimidine], the SIX2-tdTomato-positive cell rate in test [1] turned out to be 20.6±5.3%; in test [2], 31.1±10.0%.

Take “TGFβ1: TGFβ signaling activator protein (Peprotech)”: the SIX2-tdTomato-positive cell rate in test [1] amounted to 20.6±5.3%; in test [2], 31.1±10.0%.
